Results reported in PubChem BioAssay AID1963825 (Molecular Pharmacology Branch, DTP, NCI, 2024).
pIC50: −log10 of the molar value.

Assay: Anticancer human tumor 997537-175-T-J1-PDC patient-derived colon adenocarcinoma cell line growth inhibition [POLQ]
Conditions: 997537-175-T-J1-PDC complex spheroid viability, combination with POLQ inhibitors; for pIC50: curve of first compound; for viability, T/C: stronger effect = lower value; active means viability on the fitted dose curve at most 10% of control; inactive means the rest
Method in brief: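 Three-cell-type spheroids modelling solid tumor plus stroma served as the readout system; POL inhibitors were tested individually and in combination, concentration ranges set by clinical Cmax where known.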

[1] = second compound 0.0316 µM, first compound 0.0316 µM
[2] = second compound 0.0316 µM, first compound 0.1 µM
[3] = second compound 0.0316 µM, first compound 0.316 µM
[4] = second compound 0.0316 µM, first compound 1 µM
[5] = second compound 0.0316 µM, first compound 3.16 µM
[6] = second compound 0.0316 µM, first compound 10 µM
[7] = second compound 0.1 µM, first compound 0.0316 µM
[8] = second compound 0.1 µM, first compound 0.1 µM
[9] = second compound 0.1 µM, first compound 0.316 µM
[10] = second compound 0.1 µM, first compound 1 µM
[11] = second compound 0.1 µM, first compound 3.16 µM
[12] = second compound 0.1 µM, first compound 10 µM
[13] = second compound 0.316 µM, first compound 0.0316 µM
[14] = second compound 0.316 µM, first compound 0.1 µM
[15] = second compound 0.316 µM, first compound 0.316 µM
[16] = second compound 0.316 µM, first compound 1 µM
[17] = second compound 0.316 µM, first compound 3.16 µM
[18] = second compound 0.316 µM, first compound 10 µM
[19] = second compound 1 µM, first compound 0.0316 µM
[20] = second compound 1 µM, first compound 0.1 µM
[21] = second compound 1 µM, first compound 0.316 µM
[22] = second compound 1 µM, first compound 1 µM
[23] = second compound 1 µM, first compound 3.16 µM
[24] = second compound 1 µM, first compound 10 µM
[25] = second compound 3.16 µM, first compound 0.0316 µM
[26] = second compound 3.16 µM, first compound 0.1 µM
[27] = second compound 3.16 µM, first compound 0.316 µM
[28] = second compound 3.16 µM, first compound 1 µM
[29] = second compound 3.16 µM, first compound 3.16 µM
[30] = second compound 3.16 µM, first compound 10 µM
[31] = second compound 10 µM, first compound 0.0316 µM
[32] = second compound 10 µM, first compound 0.1 µM
[33] = second compound 10 µM, first compound 0.316 µM
[34] = second compound 10 µM, first compound 1 µM
[35] = second compound 10 µM, first compound 3.16 µM
[36] = second compound 10 µM, first compound 10 µM
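Further: luminescence signal used as a surrogate for viable cells; spheroids exposed to drugs for seven days before readout.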

CC1COCCN1c1cc(C2(S(C)(=N)=O)CC2)nc(-c2ccnc3[nH]ccc23)n1 (centres undefined) + COC1C(OC(N)=O)C(O)C(Oc2ccc3c(O)c(NC(=O)c4ccc(O)c(CC=C(C)C)c4)c(=O)oc3c2C)OC1(C)C
inactive: viability, T/C [1] 113% | viability, T/C [2] 114% | viability, T/C [3] 84.4% | viability, T/C [4] 85.4% | viability, T/C [5] 90% | viability, T/C [6] 49.9% | viability, T/C [7] 94.5% | viability, T/C [8] 102% | viability, T/C [9] 82.7% | viability, T/C [10] 72.1% | viability, T/C [11] 80.3% | viability, T/C [12] 60.5% | viability, T/C [13] 99.8% | viability, T/C [14] 112% | viability, T/C [15] 105% | viability, T/C [16] 94.2% | viability, T/C [17] 77.7% | viability, T/C [18] 54.7% | viability, T/C [19] 110% | viability, T/C [20] 92.7% | viability, T/C [21] 102% | viability, T/C [22] 106% | viability, T/C [23] 67% | viability, T/C [24] 56.4% | viability, T/C [25] 109% | viability, T/C [26] 112% | viability, T/C [27] 106% | viability, T/C [28] 94.3% | viability, T/C [29] 79.2% | viability, T/C [30] 66.6% | viability, T/C [31] 109% | viability, T/C [32] 95.7% | viability, T/C [33] 98.9% | viability, T/C [34] 66.5% | viability, T/C [35] 71.6% | viability, T/C [36] 62.8%
< 5.00: pIC50 (second compound 0.0316 µM) | pIC50 (second compound 0.1 µM) | pIC50 (second compound 0.316 µM) | pIC50 (second compound 1 µM) | pIC50 (second compound 3.16 µM) | pIC50 (second compound 10 µM)

O=c1[nH]cc(F)c(=O)[nH]1 + Cc1cccc(N(C)C(=O)C2C(O)CCN2c2nc(C)cc(C(F)(F)F)c2C#N)c1
< 5.00: pIC50 (second compound 0.0316 µM) | pIC50 (second compound 0.1 µM) | pIC50 (second compound 0.316 µM) | pIC50 (second compound 1 µM) | pIC50 (second compound 3.16 µM) | pIC50 (second compound 10 µM)
inactive: viability, T/C [1] 84.2% | viability, T/C [2] 109% | viability, T/C [3] 95.8% | viability, T/C [4] 96.7% | viability, T/C [5] 94.6% | viability, T/C [6] 79.7% | viability, T/C [7] 95.8% | viability, T/C [8] 87.7% | viability, T/C [9] 103% | viability, T/C [10] 108% | viability, T/C [11] 103% | viability, T/C [12] 98.4% | viability, T/C [13] 95% | viability, T/C [14] 96% | viability, T/C [15] 112% | viability, T/C [16] 98.4% | viability, T/C [17] 94.9% | viability, T/C [18] 83.3% | viability, T/C [19] 104% | viability, T/C [20] 82.8% | viability, T/C [21] 94.7% | viability, T/C [22] 87.5% | viability, T/C [23] 87.3% | viability, T/C [24] 91.5% | viability, T/C [25] 95% | viability, T/C [26] 99% | viability, T/C [27] 98.8% | viability, T/C [28] 87.8% | viability, T/C [29] 95.3% | viability, T/C [30] 79.6% | viability, T/C [31] 93.1% | viability, T/C [32] 96.4% | viability, T/C [33] 103% | viability, T/C [34] 95.1% | viability, T/C [35] 89.8% | viability, T/C [36] 71.8%
